We go through four sequences from patent publication US20070128217A1 (priority 2003, published 2007).

For experiment [1], the system named is antibodies in sera from SARS patients (sera 1a, 1b, 2, 6, 37, 62, London, SARS-yellow, SARS-green). It is filed as binding, human. Also on record: Binding of serum 6 to linear peptides of protein X1 of SARS-CoV Urbani / Binding of serum 37 to linear peptides of protein X1 of SARS-CoV Urbani / Binding of serum 6 to looped/cyclic peptide (PEPSCAN-ELISA) / Binding of serum 37 to looped/cyclic peptide (PEPSCAN-ELISA) / Binding of serum 37 to looped/cyclic peptides of protein X1 of SARS-CoV Urbani / Binding of serum 6 to linear peptides of protein X2 / Binding of serum 37 to linear peptides of protein X2 / Binding of serum 37 to looped/cyclic peptides of protein X2 of SARS-CoV Urbani / Binding of serum 6 to linear peptides of protein M of SARS-CoV Urbani / Binding of serum 37 to linear peptides of protein M of SARS-CoV Urbani / Binding of serum 6 to looped/cyclic peptides of protein M of SARS-CoV Urbani / Binding of serum 37 to looped/cyclic peptides of protein M of SARS-CoV Urbani / Binding of serum 6 to linear peptides of protein X3 of SARS-CoV Urbani / Binding of serum 37 to linear peptides of protein X3 of SARS-CoV Urbani / Binding of serum 37 to looped/cyclic peptides of protein X3 of SARS-CoV Urbani / Binding of serum 6 to linear peptides of protein X4 of SARS-CoV Urbani / Binding of serum 37 to linear peptides of protein X4 of SARS-CoV Urbani / Binding of serum 37 to looped/cyclic peptides of protein X4 of SARS-CoV Urbani / Binding of serum 6 to linear peptides of protein X5 of SARS-CoV Urbani / Binding of serum 37 to linear peptides of protein X5 of SARS-CoV Urbani / Binding of serum 37 to looped/cyclic peptides of protein X5 of SARS-CoV Urbani / Binding of serum 6 to linear peptides of protein N of SARS-CoV Urbani / Binding of serum 37 to linear peptides of protein N of SARS-CoV Urbani / Binding of serum 6 to linear peptide (PEPSCAN-ELISA) / Binding of serum 1a to looped/cyclic peptides of protein N of SARS-CoV Urbani / Binding of serum 1b to looped/cyclic peptides of protein N of SARS-CoV Urbani / Binding of serum 2 to looped/cyclic peptides of protein N of SARS-CoV Urbani / Binding of serum 6 to looped/cyclic peptides of protein N of SARS-CoV Urbani / Binding of serum 37 to looped/cyclic peptides of protein N of SARS-CoV Urbani / Binding of serum 62 to looped/cyclic peptides of protein N of SARS-CoV Urbani / Binding of serum London to looped/cyclic peptides of protein N of SARS-CoV Urbani / Binding of serum SARS-green to looped/cyclic peptides of protein N of SARS-CoV Urbani: unit not given here.

In experiment [2] the test system is control sera (pooled serum of ten healthy LUMC hospital workers; commercial negative donor pooled serum from the Dutch bloodbank). Type of experiment: binding, human. More on the design: Binding of Control serum LUMC to linear peptides / Binding of Control serum Blood-bank to linear peptides / Binding of Control serum LUMC to looped peptides / Binding of Control Serum Blood-Bank to Looped peptides / Binding of Control serum LUMC to linear peptides of the protein M of SARS-CoV Urbani / Binding of Control serum Blood-bank to linear peptides of the protein M of SARS-CoV Urbani / Binding of Control serum LUMC to looped peptides of the protein M of SARS-CoV Urbani / Binding of Control Serum Blood-Bank to Looped peptides of the protein M of SARS-CoV Urbani: unit not given here.

In experiment [3] the test system is rabbit serum obtained by immunizing a rabbit with the SARS-CoV strain Frankfurt 1. Type of experiment: binding. Also on record: Binding of a rabbit serum to linear peptides / Binding of a rabbit serum to looped peptides / Rabbit serum linear peptides / Rabbit serum looped peptides / Binding of a rabbit serum to linear peptides of protein N of SARS-CoV Urbani (Rabbit serum linear peptides) / Binding of a rabbit serum to looped/cyclic peptides of protein N of SARS-CoV Urbani (Rabbit serum looped peptides): unit not given here.

In the case of TSCELYHYQECVRGT, in experiment [1], the “Binding of serum 1a to linear peptides of protein X4 of SARS-CoV Urbani” value amounted to 0.7, the “Binding of serum 1a to looped/cyclic peptides of protein X4 of SARS-CoV Urbani” value came to 0.9, the “Binding of serum 1b to linear peptides of protein X4 of SARS-CoV Urbani” value is reported as 0.6 and the “Binding of serum 1b to looped/cyclic peptides of protein X4 of SARS-CoV Urbani” value came out at 0.9. Besides, in experiment [1], the “Binding of serum 2 to linear peptides of protein X4 of SARS-CoV Urbani” value is 0.3, the “Binding of serum 2 to looped/cyclic peptides of protein X4 of SARS-CoV Urbani” value came out at 0.7, the “Binding of serum 6 to linear peptides of protein X4 of SARS-CoV Urbani” value came to 0.7 and the “Binding of serum 6 to looped/cyclic peptides of protein X4 of SARS-CoV Urbani” value amounted to 0.9. In addition, in experiment [1], the “Binding of serum 37 to linear peptides of protein X4 of SARS-CoV Urbani” value is 0.7, the “Binding of serum 37 to looped/cyclic peptides of protein X4 of SARS-CoV Urbani” value was determined as 0.7, the “Binding of serum 62 to linear peptides of protein X4 of SARS-CoV Urbani” value is listed as 0.8 and the “Binding of serum 62 to looped/cyclic peptides of protein X4 of SARS-CoV Urbani” value stood at 0.7. Also, in experiment [1], the “Binding of serum London to linear peptides of protein X4 of SARS-CoV Urbani” value was 0.7, the “Binding of serum London to looped/cyclic peptides of protein X4 of SARS-CoV Urbani” value was determined as 0.4, the “Binding of serum SARS-green to linear peptides of protein X4 of SARS-CoV Urbani” value is recorded as 0.5 and the “Binding of serum SARS-green to looped/cyclic peptides of protein X4 of SARS-CoV Urbani” value turned out to be 0.7. Also, in experiment [1], the “Binding of serum SARS-yellow to linear peptides of protein X4 of SARS-CoV Urbani” value is given as 0.3 and the “Binding of serum SARS-yellow to looped/cyclic peptides of protein X4 of SARS-CoV Urbani” value is reported as 0.4. In addition, in experiment [2], the “Binding of Control Serum Blood-Bank to Looped peptides” value stood at 0.8, the “Binding of Control serum Blood-bank to linear peptides” value is 0.6, the “Binding of Control serum LUMC to linear peptides” value worked out at 0.6 and the “Binding of Control serum LUMC to looped peptides” value is listed as 0.8. Besides, in experiment [3], the “Rabbit serum linear peptides” value came out at 0.4 and the “Rabbit serum looped peptides” value came out at 0.2.
For TSLLKTHRMCKYTQS, in experiment [1], the “Binding of serum 1a to linear peptides of protein X2” value was 0.7, the “Binding of serum 1a to looped/cyclic peptides of protein X2 of SARS-CoV Urbani” value was found to be 0.4, the “Binding of serum 1b to linear peptides of protein X2” value is listed as 0.7 and the “Binding of serum 1b to looped/cyclic peptides of protein X2 of SARS-CoV Urbani” value amounted to 0.3. Also, in experiment [1], the “Binding of serum 2 to linear peptides of protein X2” value is recorded as 0.6, the “Binding of serum 2 to looped/cyclic peptides of protein X2 of SARS-CoV Urbani” value is given as 0.2, the “Binding of serum 6 to linear peptides of protein X2” value is listed as 0.5 and the “Binding of serum 6 to looped/cyclic peptides of protein X2 of SARS-CoV Urbani” value worked out at 0.2. In experiment [1], the “Binding of serum 37 to linear peptides of protein X2” value is recorded as 0.7, the “Binding of serum 37 to looped/cyclic peptides of protein X2 of SARS-CoV Urbani” value was determined as 0.2, the “Binding of serum 62 to linear peptides of protein X2” value was found to be 0.7 and the “Binding of serum 62 to looped/cyclic peptides of protein X2 of SARS-CoV Urbani” value came out at 0.4. For the same sequence, in experiment [1], the “Binding of serum London to linear peptides of protein X2” value stood at 0.5, the “Binding of serum London to looped/cyclic peptides of protein X2 of SARS-CoV Urbani” value is listed as 0.2, the “Binding of serum SARS-green to linear peptides of protein X2” value is given as 0.6 and the “Binding of serum SARS-green to looped/cyclic peptides of protein X2 of SARS-CoV Urbani” value is given as 0.2. Also, in experiment [1], the “Binding of serum SARS-yellow to linear peptides of protein X2” value was found to be 0.8 and the “Binding of serum SARS-yellow to looped/cyclic peptides of protein X2 of SARS-CoV Urbani” value turned out to be 0.3. For the same sequence, in experiment [2], the “Binding of Control Serum Blood-Bank to Looped peptides” value came to 0.4, the “Binding of Control serum Blood-bank to linear peptides” value stood at 1.0, the “Binding of Control serum LUMC to linear peptides” value is 0.9 and the “Binding of Control serum LUMC to looped peptides” value was 0.4. For the same sequence, in experiment [3], the “Binding of a rabbit serum to linear peptides” value is listed as 0.4 and the “Binding of a rabbit serum to looped peptides” value was 0.4.
Take TSLSLHKLLQTLVLK: in experiment [1], the “Binding of serum 1a to linear peptides of protein X2” value stood at 0.7, the “Binding of serum 1a to looped/cyclic peptides of protein X2 of SARS-CoV Urbani” value is 0.5, the “Binding of serum 1b to linear peptides of protein X2” value amounted to 0.6 and the “Binding of serum 1b to looped/cyclic peptides of protein X2 of SARS-CoV Urbani” value is on record as 0.4. Besides, in experiment [1], the “Binding of serum 2 to linear peptides of protein X2” value amounted to 0.5, the “Binding of serum 2 to looped/cyclic peptides of protein X2 of SARS-CoV Urbani” value turned out to be 0.3, the “Binding of serum 6 to linear peptides of protein X2” value is given as 1.0 and the “Binding of serum 6 to looped/cyclic peptides of protein X2 of SARS-CoV Urbani” value is 0.3. Further, in experiment [1], the “Binding of serum 37 to linear peptides of protein X2” value is recorded as 0.6, the “Binding of serum 37 to looped/cyclic peptides of protein X2 of SARS-CoV Urbani” value is recorded as 0.4, the “Binding of serum 62 to linear peptides of protein X2” value is given as 0.7 and the “Binding of serum 62 to looped/cyclic peptides of protein X2 of SARS-CoV Urbani” value was found to be 0.6. In experiment [1], the “Binding of serum London to linear peptides of protein X2” value is on record as 0.6, the “Binding of serum London to looped/cyclic peptides of protein X2 of SARS-CoV Urbani” value worked out at 0.2, the “Binding of serum SARS-green to linear peptides of protein X2” value is on record as 0.7 and the “Binding of serum SARS-green to looped/cyclic peptides of protein X2 of SARS-CoV Urbani” value is reported as 0.4. In experiment [1], the “Binding of serum SARS-yellow to linear peptides of protein X2” value is recorded as 0.6 and the “Binding of serum SARS-yellow to looped/cyclic peptides of protein X2 of SARS-CoV Urbani” value is reported as 0.5. In addition, in experiment [2], the “Binding of Control Serum Blood-Bank to Looped peptides” value amounted to 0.6, the “Binding of Control serum Blood-bank to linear peptides” value is 0.9, the “Binding of Control serum LUMC to linear peptides” value came out at 0.6 and the “Binding of Control serum LUMC to looped peptides” value was 0.6. Besides, in experiment [3], the “Binding of a rabbit serum to linear peptides” value turned out to be 0.2 and the “Binding of a rabbit serum to looped peptides” value is listed as 0.5.
For the sequence TSRTLSYYKLGASQR, in experiment [1], the “Binding of serum 1a to linear peptides of protein M of SARS-CoV Urbani” value stood at 0.7, the “Binding of serum 1a to looped/cyclic peptides of protein M of SARS-CoV Urbani” value was 0.7, the “Binding of serum 1b to linear peptides of protein M of SARS-CoV Urbani” value was 0.7 and the “Binding of serum 1b to looped/cyclic peptides of protein M of SARS-CoV Urbani” value came out at 0.3. Also, in experiment [1], the “Binding of serum 2 to linear peptides of protein M of SARS-CoV Urbani” value is recorded as 0.7, the “Binding of serum 2 to looped/cyclic peptides of protein M of SARS-CoV Urbani” value turned out to be 0.7, the “Binding of serum 6 to linear peptides of protein M of SARS-CoV Urbani” value was 0.9 and the “Binding of serum 6 to looped/cyclic peptides of protein M of SARS-CoV Urbani” value is on record as 1.3. Moreover, in experiment [1], the “Binding of serum 37 to linear peptides of protein M of SARS-CoV Urbani” value was found to be 0.7, the “Binding of serum 37 to looped/cyclic peptides of protein M of SARS-CoV Urbani” value came to 0.6, the “Binding of serum 62 to linear peptides of protein M of SARS-CoV Urbani” value was 0.5 and the “Binding of serum 62 to looped/cyclic peptides of protein M of SARS-CoV Urbani” value was 0.6. Also, in experiment [1], the “Binding of serum London to linear peptides of protein M of SARS-CoV Urbani” value is on record as 0.5, the “Binding of serum London to looped/cyclic peptides of protein M of SARS-CoV Urbani” value came to 0.7, the “Binding of serum SARS-green to linear peptides of protein M of SARS-CoV Urbani” value amounted to 0.7 and the “Binding of serum SARS-green to looped/cyclic peptides of protein M of SARS-CoV Urbani” value is recorded as 0.3. For the same sequence, in experiment [1], the “Binding of serum SARS-yellow to linear peptides of protein M of SARS-CoV Urbani” value worked out at 0.5 and the “Binding of serum SARS-yellow to looped/cyclic peptides of protein M of SARS-CoV Urbani” value is 0.9. Besides, in experiment [2], the “Binding of Control Serum Blood-Bank to Looped peptides of the protein M of SARS-CoV Urbani” value is reported as 0.6, the “Binding of Control serum Blood-bank to linear peptides of the protein M of SARS-CoV Urbani” value was found to be 0.9, the “Binding of Control serum LUMC to linear peptides of the protein M of SARS-CoV Urbani” value was found to be 1.0 and the “Binding of Control serum LUMC to looped peptides of the protein M of SARS-CoV Urbani” value was 0.8. For the same sequence, in experiment [3], the “Rabbit serum linear peptides” value came to 0.3 and the “Rabbit serum looped peptides” value was 1.1.
